# Reference: patent US10681909B2, “Herbicidal triazoles” (FMC Corporation, priority 2014, dated 2020)
# Assays:
# ryegrass, Italian = test: Test A preemergence; type: in vivo, Lolium multiflorum; conditions: 0 to 100 scale (0 no effect, 100 complete control)
# Text: (§1) Seeds of plant species selected from barnyardgrass (Echinochloa crus-galli), crabgrass, large (large crabgrass, Digitaria sanguinalis), kochia (Kochia scoparia), ragweed (common ragweed, Ambrosia elatior), foxtail, giant (giant foxtail, Setaria faberii), morningglory (Ipomoea spp.), pigweed (Amaranthus retroflexus), velvetleaf (Abutilon theophrasti), ryegrass, Italian (Italian ryegrass, Lolium multiflorum), wheat (Triticum aestivum), and corn (Zea mays) were planted into a blend of loam soil and sand and treated preemergence with a directed soil spray using test chemicals formulated in a non-phytotoxic solvent mixture which included a surfactant.
# (§2) At the same time, plants selected from these crop and weed species and also blackgrass (Alopecurus myosuroides), and galium (catchweed bedstraw, Galium aparine), were planted in pots containing the same blend of loam soil and sand and treated with postemergence applications of test chemicals formulated in the same manner. Plants ranged in height from 2 to 10 cm and were in the one- to two-leaf stage for the postemergence treatment. Treated plants and untreated controls were maintained in a greenhouse for approximately 10 d, after which time all treated plants were compared to untreated controls and visually evaluated for injury. Plant response ratings, summarized in Table A, are based on a 0 to 100 scale where 0 is no effect and 100 is complete control. A dash (-) response means no test result.
# ragweed = test: Test A preemergence; type: in vivo, Ambrosia elatior; conditions: 0 to 100 scale (0 no effect, 100 complete control)
# Text: as §1, §2
# morningglory [1] = test: Test C preemergence; type: in vivo, Ipomoea coccinea; conditions: for Plant response rating (scale of 0 to 100 where 0 is no effect and 100 is complete control): Morningglory, preemergence; for Morningglory plant response rating (0 to 100): Preemergence, visual rating after 13 to 15 d
# Text: Seeds of plant species selected from blackgrass (Alopecurus myosuroides), ryegrass, Italian (Italian ryegrass, Lolium multiflorum), wheat (winter wheat, Triticum aestivum), galium (catchweed bedstraw, Galium aparine), corn (Zea mays), crabgrass, large (large crabgrass, Digitaria sanguinalis), foxtail, giant, (giant foxtail, Setaria faberii), johnsongrass (Sorghum halepense), lambsquarters (Chenopodium album), morningglory (Ipomoea coccinea), nutsedge, yellow (yellow nutsedge, Cyperus esculentus), pigweed (Amaranthus retroflexus), ragweed (common ragweed, Ambrosia elatior), soybean (Glycine max), barnyardgrass (Echinochloa crus-galli), oilseed rape (Brassica napus), waterhemp (common waterhemp, Amaranthus rudis), and velvetleaf (Abutilon theophrasti) were planted into a blend of loam soil and sand and treated preemergence with test chemicals formulated in a non-phytotoxic solvent mixture which included a surfactant. At the same time, plants selected from these crop and weed species and also chickweed (common chickweed, Stellaria media), oat, wild (wild oat, Avena fatua), and kochia (Kochia scoparia), were planted in pots containing Sunshine Redi-Earth® planting medium comprising spaghnum peat moss, vermiculite, starter nutrients and dolomitic limestone and treated with postemergence applications of test chemicals formulated in the same manner. Plants ranged in height from 2 to 18 cm (1- to 4-leaf stage) for postemergence treatments. […] A dash (-) response means no test result.
# morningglory [2] = test: Test A postemergence; type: in vivo, Ipomoea spp.; conditions: Ipomoea, post-emergence, 240 h, 0 to 100 scale (0 no effect, 100 complete control), approx. 10 d, read-out: Plant response rating, Morningglory; for pest or weed control at 125 g/ha: 125 g ai/ha; for pest or weed control at 500 g/ha: 500 g ai/ha
# How it was run: (§3)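 Loam/sand soil mix; compound in non-phytotoxic solvent + surfactant. Pre: directed soil spray right after planting seed. Post: potted plants 2–10 cm, 1–2 leaf stage, sprayed with same formulation.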
# crabgrass, large = test: Test A preemergence; type: in vivo, Digitaria sanguinalis; conditions: Digitaria sanguinalis, pre-emergence, 240 h, 0 to 100 scale (0 no effect, 100 complete control), read-out: Plant response rating, Crabgrass, Large; for pest or weed control at 125 g/ha: 125 g ai/ha; for pest or weed control at 500 g/ha: 500 g ai/ha, approx. 10 d
# How it was run: as §3
# chamomile = test: Test D preemergence; type: in vivo, Matricaria inodora; conditions: scale 0 to 100
# Text: (§4) Seeds of plant species selected from bluegrass (annual bluegrass, Poa annua), blackgrass (Alopecurus myosuroides), canarygrass (Phalaris minor), chickweed (common chickweed, Stellaria media), galium (catchweed bedstraw, Galium aparine), bromegrass, down (downy bromegrass, Bromus tectorum), Russian thistle (Salsola kali), field poppy (Papaver rhoeas), field violet (Viola arvensis), foxtail, green (green foxtail, Setaria viridis), deadnettle (henbit deadnettle, Lamium amplexicaule), ryegrass, Ital. (Italian ryegrass, Lolium multiflorum), kochia (Kochia scoparia), lambsquarters (Chenopodium album), oilseed rape (Brassica napus), pigweed (Amaranthus retroflexus), chamomile (scentless chamomile, Matricaria inodora), speedwell (bird's-eye speedwell, Veronica persica), barley, spring (spring barley, Hordeum vulgare), wheat, spring (spring wheat, Triticum aestivum), buckwheat, wild (wild buckwheat, Polygonum convolvulus), wild mustard (Sinapis arvensis), oat, wild (wild oat, Avena fatua), radish, wild (wild radish, Raphanus raphanistrum), […]), barley, winter (winter barley, Hordeum vulgare), and wheat, winter (winter wheat, Triticum aestivum) were planted into a silt loam soil and treated preemergence with test chemicals formulated in a non-phytotoxic solvent mixture which included a surfactant. At the same time, these species were planted in pots containing Sunshine Redi-Earth® planting medium comprising spaghnum peat moss, vermiculite, starter nutrients and dolomitic limestone and treated with postemergence applications of the test chemicals formulated in the same manner. Plants ranged in height from 2 to 18 cm (1- to 4-leaf stage). Treated plants and controls were maintained in a controlled growth environment for 14 to 21 d after which time all species were compared to controls and visually evaluated. […] A dash (-) response means no test result.
# blackgrass = test: Test D postemergence; type: in vivo, Alopecurus myosuroides; conditions: scale 0 to 100
# Text: as §4
# foxtail, green = test: Test D postemergence; type: in vivo, Setaria viridis; conditions: scale 0 to 100
# Text: as §4
# pigweed = test: Test D postemergence; type: in vivo, Amaranthus retroflexus; conditions: scale 0 to 100
# Text: as §4
SMILES,"Plant response rating, Ryegrass, Italian (ryegrass, Italian; 125 g ai/ha)","Plant response rating, Ragweed (ragweed; 125 g ai/ha)",Plant response rating (scale of 0 to 100 where 0 is no effect and 100 is complete control) (morningglory [1]; 125 g ai/ha),Plant response rating (scale of 0 to 100 where 0 is no effect and 100 is complete control) (morningglory [1]; 250 g ai/ha),Morningglory plant response rating (0 to 100) (morningglory [1]; 31 g ai/ha),Morningglory plant response rating (0 to 100) (morningglory [1]; 62 g ai/ha),pest or weed control at 125 g/ha (morningglory [2]) [%],pest or weed control at 500 g/ha (morningglory [2]) [%],"pest or weed control at 125 g/ha (crabgrass, large) [%]","pest or weed control at 500 g/ha (crabgrass, large) [%]",other results
COc1nc(-c2ccc(C(F)(F)F)cc2)nn1Cc1ccnc(C(F)(F)F)c1 [Compound 25],50,20,–,–,–,–,–,–,–,–,"Plant response rating, Ryegrass, Italian (ryegrass, Italian; 31 g ai/ha): 0; Plant response rating, Ragweed (ragweed; 31 g ai/ha): 10"
COc1nc(-c2ccccc2)nn1Cc1ccnc(C(F)(F)F)c1 [Compound 32],40,0,5,45,0,5,–,–,–,–,"Plant response rating, Ryegrass, Italian (ryegrass, Italian; 500 g ai/ha): 60; Plant response rating, Ragweed (ragweed; 500 g ai/ha): 40"
"CS(=O)(=O)c1nc(-c2ccc(F)cc2)nn1Cc1ccnc(C(F)(F)F)c1 [Compound 29, 4-[[3-(4-fluorophenyl)-5-(methylsulfonyl)-1H-1,2,4-triazole-1-yl]methyl]-2-(trifluoromethyl)pyridine]",–,–,–,–,–,–,0,0,0,0,–
"CCc1nc(-c2ccc(C(F)(F)F)cc2)nn1Cc1ccnc(C(F)(F)F)c1 [Compound 1, 4-[[5-ethyl-3-[4-(trifluoromethyl)phenyl]-1H-1,2,4-triazol-1-yl]methyl]-2-(trifluoromethyl)pyridine]",–,–,55,90,20,55,90,100,100,100,"Plant response rating: Chamomile (chamomile; 31 g ai/ha): 0; Plant response rating: Chamomile (chamomile; 62 g ai/ha): 20; Plant response rating: Chamomile (chamomile; 125 g ai/ha): 80; Plant response rating: Chamomile (chamomile; 250 g ai/ha): 100; Plant response rating: Blackgrass (blackgrass; 31 g ai/ha): 10; Plant response rating: Blackgrass (blackgrass; 62 g ai/ha): 20; Plant response rating: Blackgrass (blackgrass; 125 g ai/ha): 30; Plant response rating: Blackgrass (blackgrass; 250 g ai/ha): 45; Plant response rating: Foxtail, Green (foxtail, green; 31 g ai/ha): 25; Plant response rating: Foxtail, Green (foxtail, green; 62 g ai/ha): 45; Plant response rating: Foxtail, Green (foxtail, green; 125 g ai/ha): 65; Plant response rating: Foxtail, Green (foxtail, green; 250 g ai/ha): 75; Plant response rating: Pigweed (pigweed; 31 g ai/ha): 80; Plant response rating: Pigweed (pigweed; 62 g ai/ha): 85; Plant response rating: Pigweed (pigweed; 125 g ai/ha): 85; Plant response rating: Pigweed (pigweed; 250 g ai/ha): 85"
"Cn1nc(-c2ccc(F)cc2)nc1Oc1cccc(C(F)(F)F)c1 [Compound 5, 3-(4-fluorophenyl)-1-methyl-5-[3-(trifluoromethyl)phenoxy]-1H-1,2,4-triazole]",–,–,–,–,–,–,50,100,70,100,–
"CCn1nc(-c2ccc(F)cc2)nc1C(=O)c1ccnc(C(F)(F)F)c1 [Compound 19, [1-ethyl-3-(4-fluorophenyl)-1H-1,2,4-triazol-5-yl][2-(trifluoromethyl)-4-pyridinyl]methanone]",–,–,–,–,–,–,0,0,0,50,–
"CCCn1nc(-c2ccc(F)cc2)nc1Cc1ccnc(C(F)(F)F)c1 [Compound 17, 4-[[3-(4-fluorophenyl)-1-propyl-1H-1,2,4-triazol-5-yl]methyl]-2-(trifluoromethyl)pyridine]",–,–,–,–,–,–,70,100,100,100,–
"CCn1nc(-c2ccc(F)cc2)nc1C(O)c1ccnc(C(F)(F)F)c1 (stereo not drawn) [Compound 15, α-[1-Ethyl-3-(4-fluorophenyl)-1H-1,2,4-triazol-5-yl]-2-(trifluoromethyl)-4-pyridinemethanol]",–,–,–,–,–,–,0,10,10,30,–
"COc1nc(-c2ccc(F)cc2)nn1Cc1ccnc(C(F)(F)F)c1 [Compound 9, 4-[[3-(4-fluorophenyl)-5-methoxy-1H-1,2,4-triazol-1-yl]methyl]-2-(trifluoromethyl)pyridine]",–,–,45,90,5,45,90,100,100,100,–
CCCOc1nc(-c2ccccc2)nn1Cc1ccnc(C(F)(F)F)c1 [Compound 33],30,20,–,–,–,–,–,–,–,–,"Plant response rating, Ryegrass, Italian (ryegrass, Italian; 500 g ai/ha): 60; Plant response rating, Ragweed (ragweed; 500 g ai/ha): 30"
"Cn1nc(-c2ccc(F)cc2)nc1C(O)c1ccnc(C(F)(F)F)c1 (stereo not drawn) [Compound 14, α-[3-(4-fluorophenyl)-1-methyl-1H-1,2,4-triazol-5-yl]-2-(trifluoromethyl)-4-pyridinemethanol]",–,–,–,–,–,–,40,80,60,100,–
CCOc1nc(-c2ccc(Cl)cc2)nn1Cc1ccnc(C(F)(F)F)c1 [Compound 26],100,90,–,–,–,–,–,–,–,–,"Plant response rating, Ryegrass, Italian (ryegrass, Italian; 31 g ai/ha): 40; Plant response rating, Ragweed (ragweed; 31 g ai/ha): 60"
"CCCc1nc(-c2ccc(F)cc2)nn1Cc1ccnc(C(F)(F)F)c1 [Compound 6, 4-[[3-(4-fluorophenyl)-5-propyl-1H-1,2,4-triazol-1-yl]methyl]-2-(trifluoromethyl)pyridine]",–,–,75,100,45,60,100,100,100,100,–
